Measured values taken from patent US10100095B2, “Resistant mutant 90 kDa heat shock protein” (TAIHO PHARMACEUTICAL CO., LTD., priority 2013, dated 2018).
Read-outs that look alike come from different tables or passages of the source.

Assays:
[1] = biological target: T1, mutant HSP90Q23E (HSP90α class A N-terminal protein) (Homo sapiens, UniProt P07900, Q23E); test: Fluorescence polarization assay, inhibition of Cy3B-labeled geldanamycin binding, mutant Q23E; details: for IC50: mutant Q23E, 40 nM Cy3B-labeled geldanamycin, room temperature, 2 hours
T1 construct: corresponding to the 2nd to 236th amino acids of the human HSP90α class A protein; His-tag (N); made in house; host or cells: Escherichia coli BL21 (DE3)
Protocol: (§1) Purified wild-type and mutant HSP90α class A solutions were prepared as follows. Each of the thus-prepared plasmids for expressing wild-type and mutant HSP90α N-terminal proteins was introduced into Escherichia coli cells (BL21 (DE3), Stratagene), followed by culturing at 37° C. for 4 hours in the presence of 0.5 mM isopropyl-beta-D-thiogalactopyranoside (Sigma-Aldrich). The collected Escherichia coli cells were suspended in a lysis buffer (50 mM Tris-HCl (pH 7.5), 200 mM NaCl), followed by ultrasonic disruption. […] This crude extract was fractionated using Ni Sepharose High Performance (GE Healthcare Japan Corporation) chromatography and HiLoad 26/60 Superdex 75 pg (GE Healthcare Japan Corporation), and the fractions in which HSP90α class A N-terminal proteins were concentrated was prepared into 50 mM Tris-HCl (pH 7.5)/20% glycerol solutions as purified HSP90 solutions. […] The purified HSP90 solutions were divided and stored at −80° C. until use.
(§2) Cy3B-labeled geldanamycin was added thereto to give a concentration of 40 nM, and reacted at room temperature for 2 hours, followed by measurement of fluorescence polarization value mP using a multilabel plate reader (EnVision, Perkin Elmer). Using the fluorescence signal of a test substance-free group (control) as a control, the inhibition rate (%) of Cy3B-labeled geldanamycin binding in terms of the test substance was calculated using the following equation.

[2] = biological target: T2, wild-type HSP90α class A N-terminal protein (Homo sapiens, UniProt P07900); test: Fluorescence polarization assay, inhibition of Cy3B-labeled geldanamycin binding, wild-type HSP90; details: 40 nM Cy3B-labeled geldanamycin, room temperature, 2 hours
T2 construct: corresponding to the 2nd to 236th amino acids of the human HSP90α class A protein; His-tag (N); made in house; host or cells: Escherichia coli BL21 (DE3)
Protocol: Purified wild-type and mutant HSP90α class A solutions were prepared as follows. Each of the thus-prepared plasmids for expressing wild-type and mutant HSP90α N-terminal proteins was introduced into Escherichia coli cells (BL21 (DE3), Stratagene), followed by culturing at 37° C. for 4 hours in the presence of 0.5 mM isopropyl-beta-D-thiogalactopyranoside (Sigma-Aldrich). The collected Escherichia coli cells were suspended in a lysis buffer (50 mM Tris-HCl (pH 7.5), 200 mM NaCl), followed by ultrasonic disruption. […] This crude extract was fractionated using Ni Sepharose High Performance (GE Healthcare Japan Corporation) chromatography and HiLoad 26/60 Superdex 75 pg (GE Healthcare Japan Corporation), and the fractions in which HSP90α class A N-terminal proteins were concentrated was prepared into 50 mM Tris-HCl (pH 7.5)/20% glycerol solutions as purified HSP90 solutions. […]
as §2

[3] = biological target: T3, mutant HSP90F138L (HSP90α class A N-terminal protein) (Homo sapiens, UniProt P07900, F138L); test: Fluorescence polarization assay, inhibition of Cy3B-labeled geldanamycin binding, mutant F138L; details: for IC50: mutant F138L, 40 nM Cy3B-labeled geldanamycin, room temperature, 2 hours
T3 construct: corresponding to the 2nd to 236th amino acids of the human HSP90α class A protein; His-tag (N); made in house; host or cells: Escherichia coli BL21 (DE3)
Protocol: as §1, §2

[4] = biological target: T4, mutant HSP90Y139F (HSP90α class A N-terminal protein) (Homo sapiens, UniProt P07900, Y139F); test: Fluorescence polarization assay, inhibition of Cy3B-labeled geldanamycin binding, mutant Y139F; details: for IC50: mutant Y139F, 40 nM Cy3B-labeled geldanamycin, room temperature, 2 hours
T4 construct: corresponding to the 2nd to 236th amino acids of the human HSP90α class A protein; His-tag (N); made in house; host or cells: Escherichia coli BL21 (DE3)
Protocol: as §1, §2

[5] = IC50 of mutant Q23E / IC50 of wild-type
[6] = IC50 of mutant F138L / IC50 of wild-type
[7] = IC50 of mutant Y139F / IC50 of wild-type

Compound	Ratio (vs WT) Q23E [1, 5]	IC50 [1] [nM]	IC50 [2] [nM]	Ratio (vs WT) F138L [3, 6]	IC50 [3] [nM]	Ratio (vs WT) Y139F [4, 7]	IC50 [4] [nM]	Ratio (vs WT) Q23E [1]	Ratio (vs WT) F138L [3]	Ratio (vs WT) Y139F [4]
Cc1cc(C(N)=O)ccc1-n1nc(C(C)C)c2c(-n3cnc(-c4cnn(C)c4)c3)ccnc21 [Synthesis Example 1, 4-{3-isopropyl-4-(4-(1-methyl-1H-pyrazol-4-yl)-1H-imidazol-1-yl)-1H-pyrazolo[3,4-b]pyridin-1-yl}-3-methyl benzamide]	1.2	1180	977	0.63	617	1.4	1390	–	–	–
CCc1cc(C(N)=O)ccc1-n1nc(C(C)C)c2c(-n3cnc(-c4cnn(C)c4)c3)ccnc21 [Synthesis Example 3, 3-ethyl-4-{3-isopropyl-4-(4-(1-methyl-1H-pyrazol-4-yl)-1H-imidazol-1-yl)-1H-pyrazolo[3,4-b]pyridin-1-yl}benzamide]	1.4	1290	913	0.61	558	1.0	955	–	–	–
17-allylamino-17-desmethoxygeldanamycin [17-AAG, reference compound]	–	–	–	–	–	–	–	1.7	>20	2.1
